Assay results from the NIST ThermoML archive (doi:10.1016/j.jct.2011.05.018).

Test: xn = mol fraction of the nth substance listed
Settings: 101 kPa, Liquid; for viscosity: Capillary tube (Ostwald / Ubbelohde) method; for speed of sound: Pulse-echo method; for mass density: Pycnometric method

COc1ccc(C=O)cc1 [4-methoxybenzaldehyde] + Cc1cccc(O)c1
Settings | mass density [kg/m3] | speed of sound [m/s] | viscosity [mPa·s]
303.15 K, x1 = 0.0883 | 1031.6 | 1487.6 | 8.513
303.15 K, x1 = 0.1789 | 1037.8 | 1507.8 | 8.028
303.15 K, x1 = 0.2719 | 1044 | 1528.6 | 7.569
303.15 K, x1 = 0.3674 | 1052.6 | 1550.3 | 7.051
303.15 K, x1 = 0.4656 | 1060.7 | 1572.5 | 6.528
303.15 K, x1 = 0.5665 | 1068 | 1595.6 | 5.969
303.15 K, x1 = 0.6703 | 1076.4 | 1619.1 | 5.331
303.15 K, x1 = 0.777 | 1088 | 1643.4 | 4.593
303.15 K, x1 = 0.8869 | 1104.5 | 1668.4 | 3.93
303.15 K, x1 = 1 | 1125.2 | 1694.3 | 3.251
308.15 K, x1 = 0.0883 | 1026.7 | 1471.4 | 7.108
308.15 K, x1 = 0.1789 | 1032.4 | 1490.9 | 6.747
308.15 K, x1 = 0.2719 | 1038 | 1511 | 6.421
308.15 K, x1 = 0.3674 | 1045.4 | 1532.1 | 6.046
308.15 K, x1 = 0.4656 | 1052.3 | 1553.4 | 5.659
308.15 K, x1 = 0.5665 | 1060 | 1575.6 | 5.237
308.15 K, x1 = 0.6703 | 1066.1 | 1598.2 | 4.741
308.15 K, x1 = 0.777 | 1077.2 | 1621.6 | 4.151
308.15 K, x1 = 0.8869 | 1092.6 | 1645.7 | 3.648
308.15 K, x1 = 1 | 1111.6 | 1670.7 | 3.131
313.15 K, x1 = 0.0883 | 1022.8 | 1455.7 | 5.894
313.15 K, x1 = 0.1789 | 1028.4 | 1473.1 | 5.629
313.15 K, x1 = 0.2719 | 1034.8 | 1490.7 | 5.393
313.15 K, x1 = 0.3674 | 1042.8 | 1509.2 | 5.13
313.15 K, x1 = 0.4656 | 1049.1 | 1528.1 | 4.858
313.15 K, x1 = 0.5665 | 1056.8 | 1547.6 | 4.555
313.15 K, x1 = 0.6703 | 1064.4 | 1567.4 | 4.181
313.15 K, x1 = 0.777 | 1075.1 | 1588.1 | 3.724
313.15 K, x1 = 0.8869 | 1090.9 | 1609.3 | 3.34
313.15 K, x1 = 1 | 1109.5 | 1631.3 | 2.961
318.15 K, x1 = 0.0883 | 1019.2 | 1437.7 | 4.849
318.15 K, x1 = 0.1789 | 1026.5 | 1449.6 | 4.655
318.15 K, x1 = 0.2719 | 1033.4 | 1461.5 | 4.47
318.15 K, x1 = 0.3674 | 1041.6 | 1474.1 | 4.272
318.15 K, x1 = 0.4656 | 1048.2 | 1487 | 4.085
318.15 K, x1 = 0.5665 | 1055.2 | 1500.1 | 3.868
318.15 K, x1 = 0.6703 | 1062.5 | 1513.5 | 3.586
318.15 K, x1 = 0.777 | 1073.3 | 1527.5 | 3.236
318.15 K, x1 = 0.8869 | 1088.4 | 1542 | 2.949
318.15 K, x1 = 1 | 1104.7 | 1557 | 2.682

COc1ccc(C=O)cc1 [4-methoxybenzaldehyde] + Cc1ccc(O)cc1
Settings | mass density [kg/m3] | speed of sound [m/s] | viscosity [mPa·s]
303.15 K, x1 = 0.0882 | 1032.1 | 1492 | 9.142
303.15 K, x1 = 0.1788 | 1038.5 | 1511.2 | 8.618
303.15 K, x1 = 0.2717 | 1044.6 | 1532.1 | 8.086
303.15 K, x1 = 0.3673 | 1053 | 1553.5 | 7.524
303.15 K, x1 = 0.4654 | 1061.2 | 1575.9 | 7.064
303.15 K, x1 = 0.5663 | 1068.4 | 1599.1 | 6.543
303.15 K, x1 = 0.6701 | 1076.7 | 1622.7 | 5.753
303.15 K, x1 = 0.7769 | 1089.3 | 1646.6 | 5.04
303.15 K, x1 = 0.8868 | 1105.6 | 1671.3 | 4.265
303.15 K, x1 = 1 | 1125.2 | 1694.3 | 3.251
308.15 K, x1 = 0.0882 | 1027.7 | 1477 | 7.824
308.15 K, x1 = 0.1788 | 1033 | 1496.4 | 7.419
308.15 K, x1 = 0.2717 | 1038.6 | 1516.2 | 7.002
308.15 K, x1 = 0.3673 | 1045.9 | 1536.6 | 6.568
308.15 K, x1 = 0.4654 | 1053 | 1558 | 6.218
308.15 K, x1 = 0.5663 | 1060.5 | 1580.1 | 5.826
308.15 K, x1 = 0.6701 | 1066.8 | 1602.5 | 5.158
308.15 K, x1 = 0.7769 | 1077.5 | 1625.2 | 4.604
308.15 K, x1 = 0.8868 | 1093 | 1648.6 | 3.965
308.15 K, x1 = 1 | 1111.6 | 1670.7 | 3.131
313.15 K, x1 = 0.0882 | 1024.2 | 1462.2 | 6.529
313.15 K, x1 = 0.1788 | 1029.7 | 1479.1 | 6.242
313.15 K, x1 = 0.2717 | 1035.9 | 1496.4 | 5.913
313.15 K, x1 = 0.3673 | 1044 | 1514.2 | 5.582
313.15 K, x1 = 0.4654 | 1050.3 | 1533 | 5.339
313.15 K, x1 = 0.5663 | 1057.6 | 1552.4 | 5.07
313.15 K, x1 = 0.6701 | 1065.6 | 1572 | 4.541
313.15 K, x1 = 0.7769 | 1076.5 | 1591.7 | 4.099
313.15 K, x1 = 0.8868 | 1091.7 | 1612 | 3.609
313.15 K, x1 = 1 | 1109.5 | 1631.3 | 2.961
318.15 K, x1 = 0.0882 | 1020 | 1445.1 | 5.316
318.15 K, x1 = 0.1788 | 1027.2 | 1456.5 | 5.115
318.15 K, x1 = 0.2717 | 1033.9 | 1467.9 | 4.87
318.15 K, x1 = 0.3673 | 1042.1 | 1479.6 | 4.616
318.15 K, x1 = 0.4654 | 1048.9 | 1492.3 | 4.431
318.15 K, x1 = 0.5663 | 1055.4 | 1505.4 | 4.259
318.15 K, x1 = 0.6701 | 1063 | 1518.5 | 3.861
318.15 K, x1 = 0.7769 | 1073.7 | 1531.2 | 3.523
318.15 K, x1 = 0.8868 | 1088.9 | 1544.7 | 3.163
318.15 K, x1 = 1 | 1104.7 | 1557 | 2.682
